Experimental data from patent US20220096389A1, “PHARMACEUTICAL COMPOSITIONS OF AMORPHOUS SOLID DISPERSIONS AND METHODS OF PREPARATION THEREOF” (Shenzhen Pharmacin Co., Ltd., priority 2020, published 2022).
Read-outs that look alike come from different tables or passages of the source.

Assays:
[1] = cited from earlier work; for Measured or Calculated pKas (first value): first value in cell; for Measured or Calculated pKas (second value): second value in cell
[2] = biological target: Human Epidermal Growth Factor Receptor 2 (HER2) (Homo sapiens, UniProt P04626); conditions: cited from earlier work
Chain of Human Epidermal Growth Factor Receptor 2 (HER2) (P04626 23-1255): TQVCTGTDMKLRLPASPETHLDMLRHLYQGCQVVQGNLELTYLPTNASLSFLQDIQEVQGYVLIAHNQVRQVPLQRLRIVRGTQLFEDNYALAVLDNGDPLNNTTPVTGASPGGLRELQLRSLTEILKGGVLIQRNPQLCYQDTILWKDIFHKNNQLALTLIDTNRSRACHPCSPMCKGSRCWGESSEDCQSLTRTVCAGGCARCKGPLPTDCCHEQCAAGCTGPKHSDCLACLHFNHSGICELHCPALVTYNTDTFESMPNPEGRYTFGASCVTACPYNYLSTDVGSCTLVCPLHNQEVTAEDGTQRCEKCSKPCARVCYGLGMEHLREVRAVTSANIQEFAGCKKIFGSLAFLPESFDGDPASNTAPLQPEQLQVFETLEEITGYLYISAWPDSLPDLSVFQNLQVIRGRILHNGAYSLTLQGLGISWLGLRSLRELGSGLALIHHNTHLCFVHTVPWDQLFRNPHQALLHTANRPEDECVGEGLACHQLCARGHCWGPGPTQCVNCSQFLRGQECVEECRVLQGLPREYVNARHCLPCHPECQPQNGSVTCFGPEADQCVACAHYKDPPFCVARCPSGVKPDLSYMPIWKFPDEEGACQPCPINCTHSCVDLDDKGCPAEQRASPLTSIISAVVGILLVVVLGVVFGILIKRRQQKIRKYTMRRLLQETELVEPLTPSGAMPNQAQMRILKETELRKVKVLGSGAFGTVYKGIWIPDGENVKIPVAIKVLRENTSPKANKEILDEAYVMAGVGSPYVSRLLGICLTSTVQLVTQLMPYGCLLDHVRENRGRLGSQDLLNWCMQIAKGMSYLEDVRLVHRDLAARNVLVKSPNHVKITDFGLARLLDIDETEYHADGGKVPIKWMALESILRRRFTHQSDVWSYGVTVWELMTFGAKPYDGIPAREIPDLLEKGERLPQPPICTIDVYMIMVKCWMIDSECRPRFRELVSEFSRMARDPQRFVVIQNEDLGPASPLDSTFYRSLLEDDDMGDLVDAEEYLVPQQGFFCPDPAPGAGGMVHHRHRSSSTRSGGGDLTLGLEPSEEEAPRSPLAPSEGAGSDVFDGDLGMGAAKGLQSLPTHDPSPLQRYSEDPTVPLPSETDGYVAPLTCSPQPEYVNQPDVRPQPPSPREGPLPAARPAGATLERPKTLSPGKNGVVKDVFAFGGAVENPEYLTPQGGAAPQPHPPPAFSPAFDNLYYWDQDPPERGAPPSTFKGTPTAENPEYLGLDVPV

[3] = biological target: HER4 (Homo sapiens, UniProt Q15303); conditions: cited from earlier work
Chain of HER4 (Q15303 26-1308): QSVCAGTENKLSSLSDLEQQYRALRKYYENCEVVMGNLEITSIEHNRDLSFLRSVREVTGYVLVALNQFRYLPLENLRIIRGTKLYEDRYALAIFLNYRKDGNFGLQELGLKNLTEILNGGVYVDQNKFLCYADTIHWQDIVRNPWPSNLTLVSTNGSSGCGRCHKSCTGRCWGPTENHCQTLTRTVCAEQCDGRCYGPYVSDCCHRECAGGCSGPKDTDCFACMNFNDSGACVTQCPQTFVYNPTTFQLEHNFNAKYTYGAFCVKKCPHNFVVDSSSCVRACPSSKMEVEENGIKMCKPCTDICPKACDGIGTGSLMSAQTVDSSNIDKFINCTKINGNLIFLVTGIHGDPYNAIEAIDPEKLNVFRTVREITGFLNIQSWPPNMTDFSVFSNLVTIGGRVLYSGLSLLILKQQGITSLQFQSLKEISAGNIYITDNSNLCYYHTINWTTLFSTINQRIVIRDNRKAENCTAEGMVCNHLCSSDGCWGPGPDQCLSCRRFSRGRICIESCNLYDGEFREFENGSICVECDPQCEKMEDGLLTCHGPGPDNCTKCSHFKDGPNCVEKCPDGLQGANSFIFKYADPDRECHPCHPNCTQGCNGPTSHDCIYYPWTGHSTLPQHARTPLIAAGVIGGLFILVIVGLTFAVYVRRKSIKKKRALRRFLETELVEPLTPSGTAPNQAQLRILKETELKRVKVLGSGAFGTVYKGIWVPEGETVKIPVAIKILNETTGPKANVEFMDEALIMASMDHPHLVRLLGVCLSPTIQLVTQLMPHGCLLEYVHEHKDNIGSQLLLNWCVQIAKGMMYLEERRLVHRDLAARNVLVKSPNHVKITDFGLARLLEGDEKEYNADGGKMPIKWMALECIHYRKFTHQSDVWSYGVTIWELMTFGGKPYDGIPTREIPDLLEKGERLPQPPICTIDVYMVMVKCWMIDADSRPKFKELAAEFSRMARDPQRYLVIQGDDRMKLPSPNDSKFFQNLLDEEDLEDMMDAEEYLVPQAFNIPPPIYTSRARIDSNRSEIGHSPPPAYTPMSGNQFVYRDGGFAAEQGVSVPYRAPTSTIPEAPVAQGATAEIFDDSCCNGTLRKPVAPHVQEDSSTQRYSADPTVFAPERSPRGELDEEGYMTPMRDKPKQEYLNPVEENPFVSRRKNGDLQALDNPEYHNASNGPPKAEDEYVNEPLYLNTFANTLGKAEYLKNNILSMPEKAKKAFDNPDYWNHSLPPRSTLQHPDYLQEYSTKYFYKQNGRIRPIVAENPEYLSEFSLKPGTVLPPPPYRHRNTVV

[4] = system: EGFR and HER2 autophosphorylation, downstream MAPK and AKT signaling pathways; conditions: in vitro; cited from earlier work
[5] = system: EGFR and/or HER2 expressing carcinoma cell lines; conditions: in vitro; cited from earlier work
[6] = system: tumor cell lines expressing HER2 and EGFR; conditions: oral administration; cited from earlier work
[7] = Kinetic solubility profiles of palbociclib ASD powders; assay type: physicochemical; conditions: aqueous buffer, thermodynamic from solid; pH 6.5 phosphate buffer, 37 C
[8] = cited from earlier work

Structure (SMILES)	Measured or Calculated pKas (first value) [1]	Measured or Calculated pKas (second value) [1]	other results
CC1(C)S[C@@H]2[C@H](NC(=O)[C@H](N)c3ccc(O)cc3)C(=O)N2[C@H]1C(=O)O [Amoxicillin]	3.39	6.71	–
CC[C@H]1OC(=O)[C@H](C)[C@@H](O[C@H]2C[C@@](C)(OC)[C@@H](O)[C@H](C)O2)[C@H](C)[C@@H](O[C@@H]2O[C@H](C)C[C@H](N(C)C)[C@H]2O)[C@](C)(O)C[C@@H](C)CN(C)[C@H](C)[C@@H](O)[C@]1(C)O [Azithromycin]	7.34	–	–
CCC(C(=O)O)c1ccc(CC(C)C)cc1 (stereo not drawn) [Butibufen]	4.64	–	–
CC(C(=O)O)c1ccc2c(c1)[nH]c1ccc(Cl)cc12 (stereo not drawn) [Carprofen]	4.63	–	–
CN(C)[C@@H]1C(O)=C(C(N)=O)C(=O)[C@@]2(O)C(O)=C3C(=O)c4c(O)ccc(Cl)c4[C@@](C)(O)[C@H]3C[C@@H]12 [Chlortetracycline]	3.33 ± 0.30	7.55 ± 0.02	–
CC[C@H]1OC(=O)[C@H](C)[C@@H](O[C@H]2C[C@@](C)(OC)[C@@H](O)[C@H](C)O2)[C@H](C)[C@@H](O[C@@H]2O[C@H](C)C[C@H](N(C)C)[C@H]2O)[C@](C)(OC)C[C@@H](C)C(=O)[C@H](C)[C@@H](O)[C@]1(C)O [Clarithromycin]	7.25	–	–
CN1C[C@@H]2C[C@H]1CN2c1cc2c(cc1F)c(=O)c(C(=O)O)cn2C1CC1 [Danofloxacin]	6.07 ± 0.06	8.56 ± 0.07	–
CN(C)[C@@H]1C(O)=C(C(N)=O)C(=O)[C@@]2(O)C(O)=C3C(=O)c4c(O)ccc(Cl)c4[C@@H](O)[C@H]3C[C@@H]12 [Demeclocycline]	3.37 ± 0.30	7.36 ± 0.03	–
O=C(O)Cc1ccccc1Nc1c(Cl)cccc1Cl [Diclofenac]	4.16	–	–
CN1CCN(c2cc3c(cc2F)c(=O)c(C(=O)O)cn3-c2ccc(F)cc2)CC1 [Difloxacin]	5.66 ± 0.04	7.24 ± 0.06	–
C[C@H]1c2cccc(O)c2C(=O)C2=C(O)[C@]3(O)C(=O)C(C(N)=O)=C(O)[C@@H](N(C)C)[C@@H]3[C@@H](O)[C@@H]21 [Doxycycline]	3.02 ± 0.30	7.97 ± 0.15	–
CCn1cc(C(=O)O)c(=O)c2cc(F)c(N3CCNCC3)nc21 [Enoxacin]	5.05 ± 0.08	6.25 ± 0.05	–
CCN1CCN(c2cc3c(cc2F)c(=O)c(C(=O)O)cn3C2CC2)CC1 [Enrofloxacin]	5.88 ± 0.03	7.74 ± 0.03	–
C#Cc1cccc(Nc2ncnc3cc(OCCOC)c(OCCOC)cc23)c1 [Erlotinib]	5.4	–	–
O=C(O)CCC(=O)c1ccc(-c2ccccc2)cc1 [Fenbufen]	4.56	–	–
CN1CCN(c2c(F)cc3c(=O)c(C(=O)O)cn(CCF)c3c2F)CC1 [Fleroxacin]	5.46	8.00	–
CC(C(=O)O)c1ccc(-c2ccccc2)c(F)c1 (stereo not drawn) [Flurbiprofen]	4.35	–	–
COc1cc2ncnc(Nc3ccc(F)c(Cl)c3)c2cc1OCCCN1CCOCC1 [Gefitinib]	7.2	–	–
CC(C)Cc1ccc(C(C)C(=O)O)cc1 (stereo not drawn) [Ibuprofen]	4.51	–	–
CC(CCc1ccccc1)NCC(O)c1ccc(O)c(C(N)=O)c1 (stereo not drawn) [Labetalol]	7.35	–	–
CN1CCN(c2c(F)cc3c(=O)c(C(=O)O)cn4c3c2OCN4C)CC1 [Marbofloxacin]	5.69 ± 0.10	8.02 ± 0.20	–
C=C1c2c(Cl)ccc(O)c2C(=O)C2=C(O)[C@]3(O)C(=O)C(C(N)=O)=C(O)[C@@H](N(C)C)[C@@H]3[C@@H](O)[C@H]12 [Meclocycline]	4.05 ± 0.30	6.87 ± 0.39	–
CCOc1cc2ncc(C#N)c(Nc3ccc(OCc4ccccn4)c(Cl)c3)c2cc1NC(=O)/C=C/CN(C)C [Neratinib]	–	–	binding to HER2 [2]: irreversibly binds; binding to HER4 [3]: irreversibly binds; EGFR and HER2 autophosphorylation, downstream MAPK and AKT signaling [4]: reduces; antitumor activity in carcinoma cell lines [5]: antitumor activity; tumor growth in mouse xenograft models [6]: inhibited tumor growth

Structure (SMILES)	Measured or Calculated pKas (first value) [1]	Measured or Calculated pKas (second value) [1]	other results
CC1COc2c(N3CCN(C)CC3)c(F)cc3c(=O)c(C(=O)O)cn1c23 (stereo not drawn) [Ofloxacin]	6.22 ± 0.05	7.81 ± 0.08	–
COc1ccc2[nH]c([S+]([O-])Cc3ncc(C)c(OC)c3C)nc2c1 (stereo not drawn) [Omeprazole]	4.14	8.90	–
C=CCOc1ccccc1OCC(O)CNC(C)C (stereo not drawn) [Oxprenolol]	9.62	–	–
CN(C)[C@@H]1C(O)=C(C(N)=O)C(=O)[C@@]2(O)C(O)=C3C(=O)c4c(O)cccc4[C@@](C)(O)[C@H]3[C@H](O)[C@@H]12 [Oxytetracycline]	3.04	8.00	–
CC(=O)c1c(C)c2cnc(Nc3ccc(N4CCNCC4)cn3)nc2n(C2CCCC2)c1=O [Palbociclib, 6-acetyl-8-cyclopentyl-5-methyl-2-[(5-piperazin-1-ylpyridin-2-yl)amino]pyrido[2,3-d]pyrimidin-7-one]	–	–	solubility [7]: < 10 µg/mL; solubility ([8]; pH value below 4): high; solubility ([8]; pH value higher than 4): less than 0.02 mg/ml
CCn1cc(C(=O)O)c(=O)c2cnc(N3CCNCC3)nc21 [Pipemidic acid]	5.42 ± 0.05	8.18 ± 0.09	–
CC(=O)Nc1ccc(OCC(O)CNC(C)C)cc1 (stereo not drawn) [Practolol]	9.41	–	–
CCN(CC)CCOC(=O)c1ccc(N)cc1 [Procaine]	2.28 ± 0.08	9.02 ± 0.01	–
CC(C)NCC(O)COc1cccc2ccccc12 (stereo not drawn) [Propranolol]	9.49 ± 0.2	–	–
CC[C@H]1OC(=O)[C@H](C)[C@@H](O[C@H]2C[C@@](C)(OC)[C@@H](O)[C@H](C)O2)[C@H](C)[C@@H](O[C@@H]2O[C@H](C)C[C@H](N(C)C)[C@H]2O)[C@](C)(O)C[C@@H](C)/C(=N\OCOCCOC)[C@H](C)[C@@H](O)[C@]1(C)O [Roxithromycin]	9.17 ± 0.30	–	–
O=C(O)c1cn(-c2ccc(F)cc2)c2cc(N3CCNCC3)c(F)cc2c1=O [Sarafloxacin]	5.62 ± 0.08	8.18 ± 0.09	–
CC(=O)NS(=O)(=O)c1ccc(N)cc1 [Sulfacetamide]	1.95 ± 0.11	5.30 ± 0.05	–
Nc1ccc(S(=O)(=O)Nc2ccc(Cl)nn2)cc1 [Sulfachloropyridazine]	1.87 ± 0.30	5.45 ± 0.06	–
Nc1ccc(S(=O)(=O)Nc2ncccn2)cc1 [Sulfadiazine]	2.10	6.28	–
[H]/N=C(/N)NS(=O)(=O)c1ccc(N)cc1 [Sulfaguanidine]	1.55	11.24	–
Cc1ccnc(NS(=O)(=O)c2ccc(N)cc2)n1 [Sulfamerazine]	2.17	6.77	–
Cc1cc(C)nc(NS(=O)(=O)c2ccc(N)cc2)n1 [Sulfamethazine]	2.28	7.42	–
Cc1nnc(NS(=O)(=O)c2ccc(N)cc2)s1 [Sulfamethizole]	1.86 ± 0.30	5.29 ± 0.04	–
Nc1ccc(S(=O)(=O)Nc2nccs2)cc1 [Sulfathiazole]	2.08	7.07	–
CC(C)(C)NC[C@H](O)COc1nsnc1N1CCOCC1 [Timolol]	9.34	–	–
COc1cc(Cc2cnc(N)nc2N)cc(OC)c1OC [Trimethoprim]	3.23 ± 0.30	6.76 ± 0.12	–
CC[C@H]1OC(=O)C[C@@H](O)[C@H](C)[C@@H](O[C@@H]2O[C@H](C)[C@@H](O[C@H]3C[C@@](C)(O)[C@@H](O)[C@H](C)O3)[C@H](N(C)C)[C@H]2O)[C@@H](CC=O)C[C@@H](C)C(=O)/C=C/C(C)=C/[C@@H]1CO[C@@H]1O[C@H](C)[C@@H](O)[C@@H](OC)[C@H]1OC [Tylosin]	3.31 ± 0.30	7.50 ± 0.13	–
